Test results published in patent US9180115B2, “Cyclohexylamines” (Asana Biosciences, LLC, priority 2011, dated 2015).
Several values for one entry are separate records, joined by “and”; a condition that tells them apart may be missing. Equal entries are not always repeated. Where two headings read alike, the source gives them in different places.

Key:
[1] = test system: Male Sprague Dawley (SD) rats; experiment: In vivo assay of mechanical nociception (rat pinch model, perisciatic injection); details: for Average Time of Analgesia: test compound 0.5%
[2] = test system: sodium channel response in hTRPV1-N1E115 cells; experiment: FLIPR membrane potential assay of sodium channel response in hTRPV1-N1E115 cells with or without heat (47° C.) activation; assay type: cell-based; details: for hTRPV1-N1E Nav 0.1 mM (% inhibition) 25° C. / hTRPV1-N1E Nav 1 mM (% inhibition) 25° C.: 25° C. (no heat activation); for hTRPV1-N1E Nav 0.1 mM (% inhibition) 47° C. / hTRPV1-N1E Nav 1 mM (% inhibition) 47° C.: 47° C. (heat activated); for IC50: read-out: hTRPV1-N1E IC50 (μM) 47° C.
Description: In one embodiment, a modified FLIPR® (Fluorometric Imaging Plate Reader) based assay system was developed which is capable of discriminating between non-specific versus hTRPV1-mediated entry of test compounds. Advantageously, the assay system utilizes heat activated opening of hTRPV1 channels followed by an assessment of internal sodium channel block. The assay allows a permanently charged compound to selectively enter through opened hTRPV1 channels and that compound's potency in inhibiting sodium channels from the cytoplasm side of the same cell can be assessed and quantified.
The test compounds are diluted in the Assay Buffer and added to each well of a specific 384-well ‘compound plate’, which serves as a source plate for compound addition using the FLIPR® platform. The concentration of compounds in the compound-plate was adjusted to achieve the desired final concentration when added to the cells in the ‘cell-plate’. After completion of the dye incubation period, the dye loaded cell-plates and the compound source plates are inserted into the FLIPR® Tetra device with a 384 FLIPR® tip box (Molecular Devices, Inc.) according to manufacturer's instructions. The compounds are robotically added to the dye loaded cell-plates using software integral to the FLIPR® Tetra instrument.
Immediately following compound addition, hTRPV1 is activated, in one of the duplicate cell plates, by heating. Specifically, entire multi-well plate containing the compound-cells mixture is incubated at 47° C. for 10 minutes, after which they are returned to room temperature (about 25° C.) for a further 30 minutes. Heat activation of hTRPV1 was omitted from the replicate cell plate which was simply maintained at room temperature for the entire 40 minutes.
A membrane potential response is elicited in the dye- and compound-loaded cells by the addition of veratridine which is a known sodium channel ‘agonist’. As illustrated in an example herein, an agonist plate containing veratridine (Sigma) is prepared in advance and is inserted into suitable devices such as, e.g., the FLIPR® TETRA device for a “2nd addition” as instructed by the manufacturer. The concentration of veratridine in the ‘agonist plate’ was adjusted to achieve a final concentration of 100 μM when added to the cells in the cell-plate. Final concentrations of veratridine greater or lesser than 100 μM may also be used but the signal measured by the FLIPR® TETRA device or another suitable device may vary accordingly.
The exposure of the cells in the cell-plate to veratridine induces sodium channels in the cells to open and the resulting ion flux produces a membrane potential depolarization that is detected as a fluorescence signal by the FLIPR® Tetra Device. The activity of test compounds is determined by their ability to attenuate the veratridine-induced fluorescence signal, the most promising compounds are those that show an enhanced activity in the heat-activated cell plate over the non-heat-activated cell plate. This differential activity reflects enhanced compound uptake via the heat activated and open hTRPV1 channels and rests on the fact that sodium channel block requires test compounds to act from the cytoplasmic side of the cell membrane.
In vitro assays were developed for assessing the inhibition of sodium channel response with compounds following stimulation by heat (47° C.) in cells expressing hTRPV1.
(v) Membrane potential Assay to Assess Sodium Channel Function in hTRPV1-Expressing Cells • Cells were plated at 5000 per 50 μL [DMEM+10% FBS+300 μg/mL H\hygromycin] per well, in a 384 clear bottom poly-D-lysine coated plate and incubated at 37° C. and 5% CO2 for 48 hours. On the day of the assay, media were discarded gently and 30 μL of the dye [FMP blue dye was prepared in assay buffer] per well was added and dye-loading was allowed to proceed for 20 min at room temperature. […]

[3] = molecular target: T1, human Nav1.5 sodium channel (Homo sapiens, UniProt Q14524); experiment: FLIPR membrane potential assay in hNav1.5-HEK293 cells; assay type: cell-based
T1 construct: host or cells: HEK-293
T1 sequence (Q14524 whole entry): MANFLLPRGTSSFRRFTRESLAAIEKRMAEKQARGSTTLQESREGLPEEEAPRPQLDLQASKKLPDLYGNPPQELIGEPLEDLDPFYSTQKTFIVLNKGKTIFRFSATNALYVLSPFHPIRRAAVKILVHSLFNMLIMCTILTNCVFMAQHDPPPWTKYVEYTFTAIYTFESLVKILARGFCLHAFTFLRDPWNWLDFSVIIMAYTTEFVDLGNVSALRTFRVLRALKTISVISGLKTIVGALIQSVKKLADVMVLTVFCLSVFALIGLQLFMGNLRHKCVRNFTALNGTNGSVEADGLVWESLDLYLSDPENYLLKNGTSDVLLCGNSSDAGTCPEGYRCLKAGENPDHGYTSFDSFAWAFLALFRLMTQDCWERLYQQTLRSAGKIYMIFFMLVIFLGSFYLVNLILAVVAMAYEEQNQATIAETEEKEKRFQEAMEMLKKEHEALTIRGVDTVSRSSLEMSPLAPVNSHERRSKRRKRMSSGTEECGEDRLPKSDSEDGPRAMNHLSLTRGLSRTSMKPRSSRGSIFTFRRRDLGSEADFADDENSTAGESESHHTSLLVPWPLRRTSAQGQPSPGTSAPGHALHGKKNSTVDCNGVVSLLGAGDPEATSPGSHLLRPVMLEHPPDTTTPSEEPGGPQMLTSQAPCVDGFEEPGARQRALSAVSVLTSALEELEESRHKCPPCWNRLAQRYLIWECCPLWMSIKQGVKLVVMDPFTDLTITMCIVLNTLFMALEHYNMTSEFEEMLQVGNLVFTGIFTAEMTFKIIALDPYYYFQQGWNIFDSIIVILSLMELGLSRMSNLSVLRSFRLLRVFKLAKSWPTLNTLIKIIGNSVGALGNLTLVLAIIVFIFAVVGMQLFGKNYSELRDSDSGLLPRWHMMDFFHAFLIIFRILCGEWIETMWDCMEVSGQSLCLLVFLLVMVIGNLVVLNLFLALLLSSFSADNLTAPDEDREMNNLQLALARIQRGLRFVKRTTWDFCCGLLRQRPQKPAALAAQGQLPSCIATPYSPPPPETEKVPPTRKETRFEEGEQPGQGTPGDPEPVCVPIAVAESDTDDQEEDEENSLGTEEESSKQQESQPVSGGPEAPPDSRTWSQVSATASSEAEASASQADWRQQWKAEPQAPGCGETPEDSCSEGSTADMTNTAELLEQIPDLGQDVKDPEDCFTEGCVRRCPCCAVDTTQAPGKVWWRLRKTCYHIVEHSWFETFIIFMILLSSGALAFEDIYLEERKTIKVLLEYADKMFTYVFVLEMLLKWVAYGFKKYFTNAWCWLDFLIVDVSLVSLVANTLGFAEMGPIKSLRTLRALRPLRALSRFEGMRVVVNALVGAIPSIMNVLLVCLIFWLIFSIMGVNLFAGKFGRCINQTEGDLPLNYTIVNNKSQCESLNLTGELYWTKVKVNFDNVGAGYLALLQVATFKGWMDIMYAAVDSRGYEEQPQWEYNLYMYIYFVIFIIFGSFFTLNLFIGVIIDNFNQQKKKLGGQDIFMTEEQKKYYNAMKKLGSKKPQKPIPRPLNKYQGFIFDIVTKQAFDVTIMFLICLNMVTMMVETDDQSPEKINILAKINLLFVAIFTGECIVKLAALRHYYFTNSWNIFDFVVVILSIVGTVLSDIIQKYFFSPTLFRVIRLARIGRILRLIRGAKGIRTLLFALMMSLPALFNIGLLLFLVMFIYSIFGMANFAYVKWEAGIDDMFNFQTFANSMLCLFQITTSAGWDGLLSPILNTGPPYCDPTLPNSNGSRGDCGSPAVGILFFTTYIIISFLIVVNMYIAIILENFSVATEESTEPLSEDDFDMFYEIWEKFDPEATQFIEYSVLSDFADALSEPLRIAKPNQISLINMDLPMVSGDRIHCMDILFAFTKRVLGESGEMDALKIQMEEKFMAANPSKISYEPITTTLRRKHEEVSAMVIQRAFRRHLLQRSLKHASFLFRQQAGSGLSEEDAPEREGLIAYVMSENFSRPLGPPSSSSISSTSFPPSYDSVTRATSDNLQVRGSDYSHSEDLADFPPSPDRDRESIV
Method: C. Method for Assessing the Extent of Inhibition of Sodium Channel Response with Compounds in hNav1.5-HEK293 Cells.
The following assay was used to assess the tendency of the test compounds to block the dominant cardiac sodium channel isoform. Nav1.5 sodium channels are known to be permeable to quaternary sodium channel blockers such as QX-314 and, thus, the assay was performed in the absence of a chemical TRPV1 agonist.
The hNav1.5-HEK-293 cells (CreaCell, France, a human embryonic kidney cell line expressing the human Nav1.5 sodium channel) were cultured in Growth medium (containing 1×DMEM (Gibco)+10% FBS (PAA Gold)+2% glutamine 100 mM (Gibco)+1% penicillin 10,000 U/mL streptomycin 10,000 μg/mL (Invitrogen)+1.2 mg/mL Geneticin® G418 (Invitrogen)) in 75 mL cell bind flasks (Corning). The following steps were followed exactly as mentioned. The spent medium was discarded and the cells rinsed once with PBS-1×. Accutase® (1-2 mL; PAA) solution was added. The plate was placed on a 37° C. warming incubator 3-5 minutes. As soon as cells are detached, 37° C. complete medium (9 mL) was added. The cell suspension is drawn into a sterile pipette and cells homogenized gently to dissociate cell aggregates. The cells were counted using a hemocytometer with Blue Trypan and then centrifuged 5 minutes at 400 g. The cells can be amplified or maintained by seeding […] in a T75 flask (final volume: 15 mL). 8000 cells in 50 μL Growth medium was added to each well of 384-well, clear bottomed, sterile poly-D-lysine coated plates with lid (Greiner-bio one) inside the laminar air-flow. The plates were incubated at 37° C. and 5% CO2 in a CO2 incubator (Thermo) for 48 hours.
On the day of the assay, cells were washed with Assay buffer, which was prepared using the components and amounts in the following Table 5. pH was adjusted to 7.4 with NaOH, volume made up to 500 mL with Milli-Q® water.
Assay Buffer was added to the cells and incubated at rt (25° C.) for 10 minutes. The compounds were diluted in assay buffer. The compounds were added and incubated at rt (25° C.) for 10 minutes. Red FMP Dye (MDC) was added to the cells and the plate was incubated at rt (25° C.) for 30 minutes. Veratridine stock (20 mM; Sigma) was prepared in DMSO; veratridine (final concentration of 30 μM) in assay buffer was added to each well of the cell seeded plates in the FLIPR and read taken for 10 minutes. The following table provides data illustrating the sodium channel activity of the test compounds in response to the presence or absence of heat stimulation in cells expressing hTRPV1. The compounds were tested for differential activity at 25° C. and 47° C. and at two test concentrations.

[4] = read-out: HEK Nav 1.5 IC50 (μM) (AVG)

| SMILES | IC50 [3, 4] [µM] | hTRPV1-N1E Nav 0.1 mM (% inhibition) 25° C. [2] | hTRPV1-N1E Nav 0.1 mM (% inhibition) 47° C. [2] | IC50 ([2]; 47° C.) [µM] | hTRPV1-N1E Nav 1 mM (% inhibition) 25° C. [2] | hTRPV1-N1E Nav 1 mM (% inhibition) 47° C. [2] | other results |
| --- | --- | --- | --- | --- | --- | --- | --- |
| Cc1cccc(C)c1C(=O)OC(C)C[N+](C)(C)C1CCCCC1.[I-] (centres unmarked) [Example 6, N-[2-((2,6-Dimethylbenzoyl)oxy)propyl]-N,N-dimethylcyclohexanaminium iodide] | 684 |  |  |  |  |  | analgesic effects in the absence of lidocaine ([1]; absence of lidocaine): analgesic effects of significant duration; Average Time of Analgesia ([1]; lidocaine 0%, injection 200 μL): 5 h; Average Time of Analgesia ([1]; lidocaine 2%, injection 100 μL): 8 h; Average Time of Analgesia ([1]; lidocaine 2%, injection 200 μL): 14 h and 10 h; hTRPV1-N1E Nav (% inhibition) 25° C., 0.5 mM ([2]; 0.5 mM, 25° C.): 24 (N = 2, %; hTRPV1-N1E Nav (% inhibition) 47° C., 0.5 mM ([2]; 0.5 mM, 47° C.): 80 (N = 2, %; hTRPV1-N1E Nav (% inhibition) 25° C., 5 mM ([2]; 5 mM, 25° C.): 58 (N = 2, %; hTRPV1-N1E Nav (% inhibition) 47° C., 5 mM ([2]; 5 mM, 47° C.): 92 (N = 2, %; hTRPV1-N1E IC50 (μM) 47° C. ([2]; 47° C.): B ′; inhibition at 10 min, 0.5 mM ([3]; human, hNav1.5-HEK293 cells (HEK-293 cells expressing human Nav1.5), pH 7.4, 0.5 mM, read-out: HEK Nay 1.5% inh. @ 0.5 mM): 30%; inhibition at 10 min, 1.5 mM ([3]; human, hNav1.5-HEK293 cells (HEK-293 cells expressing human Nav1.5), pH 7.4, 1.5 mM, read-out: HEK Nav 1.5% inh. @ 1.5 mM): 68% |
| CC1CCC([N+](C)(C)CC(C)OC(=O)c2ccc(C(C)(C)C)cc2)CC1.[I-] (centres unmarked) [Example 38, N-[2-((4-(tert-butyl)benzoyl)oxy)propyl]-N,N,4-trimethylcyclo-hexanaminium iodide] | 54 | 75 (N = 4) % | 95 (N = 4) % | 10 to 100 |  |  |  |
| Cc1cc(C)c(C(=O)OC(C)C[N+](C)(C)C2CCC(C)CC2)c(C)c1.[I-] (centres unmarked) [Example 39, N,N,4-Trimethyl-N-[2-((2,4,6-trimethyl-benzoyl)oxy)propyl] cyclohexanaminium iodide] | 89 | 41 (N = 4) % | 7 (N = 4) % | 10 to 100 |  |  |  |
| C[C@H](C[N+](C)(C)C1CCCCC1)OC(=O)c1ccc(C(C)(C)C)cc1.[Br-] [Example 48, (R)-N-[2-((4-(tert-butyl)benzoyl)oxy)propyl]-N,N-dimethylcyclo-hexanaminium bromide] |  | 48 (N = 4) % |  | 10 to 100 |  |  | IC50 ([3]; HEK Nav 1.5 IC50 (μM) (AVG)): 252 µM |
| Cc1cc(C)c(C(=O)OCC[N+](C)(C)C2CCCCC2)c(C)c1.[I-] [Example 41, N-[2-((2,4,6-Trimethylbenzoyl)oxy)ethyl]-N,N-dimethylcyclo-hexanaminium iodide] |  | 13 (N = 4) % | 66 (N = 4) % | 10 to 100 | 22 (N = 4) % | 89 (N = 4) % |  |
| CC(C[N+](C)(C)C1CCCCC1)OC(=O)c1sc2ccccc2c1Cl.[I-] (centres unmarked) [Example 31, N-[2-((3-Chloro-benzo[b]thiophene-2-carbonyl)oxy)propyl]-N,N-dimethyl-cyclohexanaminium iodide] | 160 | 27 (N = 4) % | 94 (N = 4) % | 10 to 100 |  |  |  |
| Cc1cccc(C)c1C(=O)OCC[N+](C)(C)C1CCCCC1.[I-] [Example 40, N-[2-((2,6-Dimethylbenzoyl)oxy)ethyl]-N,N-dimethylcyclo-hexanaminium iodide] |  | 10 (N = 4) % | 43 (N = 4) % |  | 12 (N = 4) % | 80 (N = 4) % |  |
| CC(C[N+](C)(C)C1CCCCC1)OC(=O)c1cccc(Cl)c1Cl.[I-] (centres unmarked) [Example 29, N-[2-((2,3-Dichlorobenzoyl)oxy)propyl]-N,N-dimethyl-cyclohexanaminium iodide] |  | 36 (N = 4) % | 52 (N = 4) % | 10 to 100 | 50 (N = 4) % | 61 (N = 4) % |  |
| CC(C[N+](C)(C)C1CCCCC1)OC(=O)c1cccn1C.[I-] (centres unmarked) [Example 34, N,N-Dimethyl-N-[2-((1-methyl-1H-pyrrole-2-carbonyl)oxy)propyl] cyclohexanaminium iodide] |  | 35 (N = 4) % | 36 (N = 4) % |  | 35 (N = 4) % | 55 (N = 4) % |  |
| CC(C[N+](C)(C)C1CCCCC1)OC(=O)c1c(Cl)cccc1Cl.[I-] (centres unmarked) [Example 27, N-[2-((2,6-Dichlorobenzoyl)oxy)propyl]-N,N-dimethylcyclo-hexanaminium iodide] |  | 23 (N = 4) % | 73 (N = 4) % | 100 to 1000 | 74 (N = 4) % | 85 (N = 4) % |  |
| CC(C[N+](C)(C)C1CCCCC1)OC(=O)c1cccs1.[I-] (centres unmarked) [Example 32, N,N-Dimethyl-N-[2-((thiophene-2-carbonyl)oxy)propyl] cyclohexanaminium iodide] |  | 4 (N = 4) % | 48 (N = 4) % |  | 1 (N = 4) % | 54 (N = 4) % |  |
| CC(C[N+](C)(C)C1CCCCC1)OC(=O)c1cccc(C(F)(F)F)c1.[I-] (centres unmarked) [Example 16, N,N-Dimethyl-N-[2-((3-(trifluoromethyl)benzoyl)oxy)propyl] cyclohexanaminium iodide] |  | 31 (N = 4) % | 60 (N = 4) % | 100 to 1000 | 50 (N = 4) % | 83 (N = 4) % |  |
